Assay results published in article PMC10691236 (Proceedings of the National Academy of Sciences of the …, 2023).
Like-named read-outs stand apart in the source and are kept apart here. One block for each compound: values may come before it.

Legend:
[1] = target: T1, luciferase-CDK2/cyclin E1 in HEK293 cells (Homo sapiens, UniProt P24941); assay: cell-based; settings: for inhibition at 50 µM: nanoBRET, read-out: inhibition at the highest concentration tested (IC50 ND); for IC50: average ± SD, n = 6, read-out: IC50, inhibition of luciferase-CDK2/cyclin E1 nanoBRET signal
T1 construct: NV2641 (CCNE1); host or cells: HEK293 (ATCC CRL-1573)
Protocol: HEK293 cells were cultured in Roswell Park Memorial Institute (RPMI) (Invitrogen) with 10% fetal bovine serum (FBS; Invitrogen). For transfection, HEK293 cells were trypsinized and resuspended in Opti-MEM I Reduced Serum, no phenol red medium (Invitrogen) with 1% FBS at a concentration of 2 × 10^5 cells/mL. Five hundred microliters of a 10 μg/mL solution of DNA was prepared by adding 1 μg/mL of CDK2-NanoLuc Fusion Vector (Promega; NV2781) to 9 μg/mL of CCNE1 Expression Vector (Promega; NV2641) in Opti-MEM I Reduced Serum, no phenol red media. Thirty microliters of FuGENE HD Transfection Reagent (Promega) was added to each milliliter of DNA mixture. The lipid-DNA mixture was incubated at room temperature for 20 min.
Posttransfection, the media were replaced with fresh Opti-MEM I Reduced Serum, no phenol red medium. NanoBRET Tracer reagent K-10 […] was added at a concentration of […] (1% DMSO final) along with 0.2% DMSO (± inhibitor). […] Following incubation, plates were removed from the incubator and allowed to equilibrate to room temperature for 15 min. A 3× Complete Substrate Plus Inhibitor Solution was made by adding 30 μL of NanoBRET Nano-Glo Substrate (Promega), 10 μL of Extracellular NanoLuc Inhibitor (Promega), and 4,960 μL of Opti-MEM reduced serum medium, no phenol red (Invitrogen). […] IC50 values were calculated from the dose–response curves using Prism 9 (four-parameter, variable slope). Experiments were performed in triplicate with technical duplicates in each run.

[2] = target: CDK2/cyclin E1 (Homo sapiens, UniProt P24941); assay: CDK2/cyclin E1 ATPase assay (ADP-Glo; phosphorylation of histone H1)
Protocol: Following a 30-min preincubation of the enzyme and inhibitor in the reaction mixture at room temperature, reactions were initiated with the addition of ATP and histone H1. Kinase reactions were carried out at room temperature for 30 min before reactions were quenched with the addition of one volume of ADP-Glo™ reagent (Promega). Following a 60-min incubation at room temperature to remove excess ATP, two volumes of Kinase Detection Reagent (Promega) were added to the sample. The luminescence signal was allowed to develop for 30 min before being measured on a Spark multimode plate reader (Tecan). […] IC50 values were calculated from the dose–response curves using Prism 9 (four-parameter, variable slope).

[3] = design: method as in PMID 27537356; settings: isolated from A. fumigatus and P. roseopurpurin; ref [30], [31]; cited from earlier work
[4] = from CDK2/cyclin E1 IC50 values (Fig. 3B)
[5] = read-out: IC50, inhibition of CDK2/cyclin E1-dependent phosphorylation of Histone H1, commercially available depsides and depsidones, n=2

Structure (SMILES): CO[C@@]1(C)[C@H](O)C(O)=C(C)C(=O)[C@@H]1Oc1cc(C)cc(O)c1C [compound 11, aculeatusquinone C]
inhibition at 50 µM [1]: ≤ 50% | IC50 [2]: 42 ± 2 µM | fold reduction in activity/potency relative to 1 [2, 4]: approximately 900 fold

Structure (SMILES): Cc1cc(O)c(C)c(O)c1C(=O)Oc1cc(C)c(C(=O)O)c(O)c1C [compound 6, 4-o-demethyl barbatic acid]
inhibition at 50 µM [1]: ≤ 50% | inhibition at 100 µM ([2]; read-out: inhibition at the highest concentration tested (IC50 ND)): ≤ 50%

IC50 [1]: 27 ± 7 µM | IC50 [2]: 6.1 ± 0.5 µM
Structure (SMILES): Cc1cc(O)c(C)c2c1Oc1c(C)c(O)cc(C)c1C(=O)O2 [compound 8, 3,8-dihydroxy-1,4,6,9-tetramethyl-dibenzo[b,e][1,4]dioxepin-11-one]

Structure (SMILES): C/C=C(/C)c1cc(O)c(C)c2c1Oc1c(C)c(O)cc(/C(C)=C\C)c1C(=O)O2 [folipastatin, reference compound]
IC50 [2, 5]: 24 µM

Structure (SMILES): Cc1cc(O)c(C)c2c1C(=O)Oc1c(C)c(O)c(C(=O)O)c(C)c1O2 [compound 7, hypoprotocetraric acid]
improvement of potency by addition of the 4-OH, relative to 8 [2, 4]: approximately ninefold

Structure (SMILES): CO[C@@]1(C)[C@H](O)C(=O)C(C)=C2OC(=O)c3c(C)cc(O)c(C)c3O[C@@H]21 [compound 1, roseopurpurin C]
cytotoxicity [3]: generally cytotoxic

Structure (SMILES): Cc1cc(O)c(C)c2c1C(=O)Oc1c(C)c(O)c(O)c(C)c1O2 [compound 10, roseopurpurin G]
IC50 [1]: 40 ± 20 µM | cytotoxicity [3]: generally cytotoxic | IC50 [2]: 0.7 ± 0.1 µM

Structure (SMILES): C/C=C(\C)c1cc(O)c(C)c2c1Oc1cc(O)cc(C)c1C(=O)O2 [unguinol, Unguinol, reference compound]
IC50 [2, 5]: 14 µM

effect on luminescence values in CDK2/cyclin E1 ADP-detection assay ([2]; commercial compound screen, n=2): increased luminescence values
Structure (SMILES): Cc1cc(O)c(C=O)c2c1C(=O)Oc1c(COC(=O)/C=C/C(=O)O)c(O)c(C(=O)O)c(C)c1O2 [Fumarprotocetriaric acid, fumarprotocetraric acid, reference compound]
